The values below are quoted from earlier work in PubChem BioAssay AID1259409 (Chemical Carcinogenesis Research Information System (CCRIS), 2018).

This data set deals with rodent chemically induced tumor inhibition, incidence and multiplicity. Put plainly: CCRIS tumor inhibitor studies.

Each structure is given as a SMILES string.

On to `CC(C)c1cc2c(c(O)c1O)[C@@]13CCCC(C)(C)[C@@H]1C[C@@H]2OC3=O`, for which the “tumour outcome (control, treated, inhibition, significance)” value (Carcinogen: 7,12-DIMETHYLBENZ[A]ANTHRACENE, 57-97-6, Dose [Inhibitor]: 0, 1 UMOL IN 200 µL ACETONE 2/WK FOR 20 WK BEGINNING 1 WK POST CARCINOGEN DOSE (STUDY DURATION: 20 WK), Route [Inhibitor]: DERMAL, Species: MOUSE, Strain/Sex: CD-1/FEMALE, Target Tissue: Type of Lesion: SKIN: TUMOR, Dose [Carcinogen]: 200 NMOL IN 200 µL ACETONE ONCE, Promoter: 12-O-TETRADECANOYLPHORBOL-13-ACETATE, 16561-29-8) is listed as 93%, 93%, 0%, not significant; the “tumour outcome (control, treated, inhibition, significance)” value (Carcinogen: 7,12-DIMETHYLBENZ[A]ANTHRACENE, 57-97-6, Dose [Inhibitor]: 0, 3 UMOL IN 200 µL ACETONE 2/WK FOR 20 WK BEGINNING 1 WK POST CARCINOGEN DOSE (STUDY DURATION: 20 WK), Route [Inhibitor]: DERMAL, Species: MOUSE, Strain/Sex: CD-1/FEMALE, Target Tissue: Type of Lesion: SKIN: TUMOR, Dose [Carcinogen]: 200 NMOL IN 200 µL ACETONE ONCE, Promoter: 12-O-TETRADECANOYLPHORBOL-13-ACETATE, 16561-29-8) is listed as 93%, 78%, 16%, not significant; the “tumour outcome (control, treated, inhibition, significance)” value (Carcinogen: 7,12-DIMETHYLBENZ[A]ANTHRACENE, 57-97-6, Dose [Inhibitor]: 0, 10 UMOL IN 200 µL ACETONE 2/WK FOR 20 WK BEGINNING 1 WK POST CARCINOGEN DOSE (STUDY DURATION: 20 WK), Route [Inhibitor]: DERMAL, Species: MOUSE, Strain/Sex: CD-1/FEMALE, Target Tissue: Type of Lesion: SKIN: TUMOR, Dose [Carcinogen]: 200 NMOL IN 200 µL ACETONE ONCE, Promoter: 12-O-TETRADECANOYLPHORBOL-13-ACETATE, 16561-29-8) was 93%, 60%, 35%, not significant.

As to `C[C@H]1O[C@@H](O[C@H]2[C@@H](O)C[C@H](O[C@H]3[C@@H](O)C[C@H](O[C@H]4CC[C@@]5(C)[C@H](CC[C@@H]6[C@@H]5CC[C@]5(C)[C@@H](C7=CC(=O)OC7)CC[C@]65O)C4)O[C@@H]3C)O[C@@H]2C)C[C@H](O)[C@@H]1O`, the “tumour outcome (control, treated, inhibition, significance)” value reads like this: (Carcinogen: 4-NITROQUINOLINE-N-OXIDE, 56-57-5, Dose [Inhibitor]: 0, 0.25 MG/100 ML IN DRINKING WATER FOR 20 WK BEGINNING 5 WK POST CARCINOGEN DOSE (STUDY DURATION: 25 WK), Route [Inhibitor]: ORAL, Species: MOUSE, Strain/Sex: ICR/FEMALE, Target Tissue: Type of Lesion: LUNG: TUMOR, Dose [Carcinogen]: 0.3 MG ONCE, Promoter: GLYCEROL, 56-81-5) 100%, 53%, 47%, not calculated; (Carcinogen: 7,12-DIMETHYLBENZ[A]ANTHRACENE, 57-97-6, Dose [Inhibitor]: 0, 85 NMOL IN ACETONE 2/WK 1 HR PRIOR TO EACH PROMOTER DOSE FOR 20 WK (STUDY DURATION: 21 WK), Route [Inhibitor]: DERMAL, Species: MOUSE, Strain/Sex: ICR/FEMALE, Target Tissue: Type of Lesion: SKIN: PAPILLOMA, Dose [Carcinogen]: 100 UG IN ACETONE ONCE, Promoter: 12-O-TETRADECANOYLPHORBOL-13-ACETATE, 16561-29-8) 100%, 80%, 20%, not calculated.

For `CC(C)=CCC1=C(O)[C@@](O)(CC=C(C)C)C(=O)C(C(=O)CC(C)C)=C1O`, the “tumour outcome (control, treated, inhibition, significance)” value (Carcinogen: 7,12-DIMETHYLBENZ[A]ANTHRACENE : 57-97-6, Dose [Inhibitor]: 0, 1 MG IN 100 µL ACETONE/DMSO (9:1) 2/WK FOR 17 WK APPLIED 30 MIN PRIOR TO EACH PROMOTER DOSE (STUDY DURATION: 18 WK), Route [Inhibitor]: DERMAL, Species: MOUSE, Strain/Sex: ICR/FEMALE, Target Tissue: Type of Lesion: SKIN: PAPILLOMA, Dose [Carcinogen]: 50 UG IN 100 µL ACETONE ONCE, Promoter: 12-O-TETRADECANOYLPHORBOL-13-ACETATE, 16561-29-8) is on record as 100%, 7%, 93%, not calculated.

Take `CSS(C)(=O)=O`: the “tumour outcome (control, treated, inhibition, significance)” value is listed as 4/30 (13%), 1/24 (4%), 69%, not significant (Carcinogen: AZOXYMETHANE, 25843-45-2, Dose [Inhibitor]: 0, 20 PPM IN DIET FOR 32 WK BEGINNING 1 WK POST CARCINOGEN TREATMENT (STUDY DURATION: 36 WK), Route [Inhibitor]: ORAL, Species: RAT, Strain/Sex: (30,30)/(30,24), Target Tissue: Type of Lesion: SMALL INTESTINE: ADENOMA OR ADENOCARCINOMA, Dose [Carcinogen]: 15 MG/KG BW 1/WK FOR 3 WK, Promoter: NONE USED); 17/30 (57%), 9/24 (38%), 33%, not significant (Carcinogen: AZOXYMETHANE, 25843-45-2, Dose [Inhibitor]: 0, 20 PPM IN DIET FOR 32 WK BEGINNING 1 WK POST CARCINOGEN TREATMENT (STUDY DURATION: 36 WK), Route [Inhibitor]: ORAL, Species: RAT, Strain/Sex: F344/MALE, Target Tissue: Type of Lesion: LARGE INTESTINE: ADENOMA OR ADENOCARCINOMA, Dose [Carcinogen]: 15 MG/KG BW 1/WK FOR 3 WK, Promoter: NONE USED); 17/30 (57%), 2/28 (7%), 88%, p<0.0001 (Carcinogen: AZOXYMETHANE, 25843-45-2, Dose [Inhibitor]: 0, 100 PPM IN DIET FOR 32 WK BEGINNING 1 WK POST CARCINOGEN TREATMENT (STUDY DURATION: 36 WK), Route [Inhibitor]: ORAL, Species: RAT, Strain/Sex: F344/MALE, Target Tissue: Type of Lesion: LARGE INTESTINE: ADENOMA OR ADENOCARCINOMA, Dose [Carcinogen]: 15 MG/KG BW 1/WK FOR 3 WK, Promoter: NONE USED); 4/30 (13%), 4/28 (14%), -7%, not significant (Carcinogen: AZOXYMETHANE, 25843-45-2, Dose [Inhibitor]: 0, 100 PPM IN DIET FOR 32 WK BEGINNING 1 WK POST CARCINOGEN TREATMENT (STUDY DURATION: 36 WK), Route [Inhibitor]: ORAL, Species: RAT, Strain/Sex: F344/MALE, Target Tissue: Type of Lesion: SMALL INTESTINE: ADENOMA OR ADENOCARCINOMA, Dose [Carcinogen]: 15 MG/KG BW 1/WK FOR 3 WK, Promoter: NONE USED); 95%, 89%, 6%, not significant (Carcinogen: DIETHYLNITROSAMINE, 55-18-5, Dose [Inhibitor]: 0, 100 PPM IN DIET FOR 4 WK BEGINNING 1 WK PRIOR TO CARCINOGEN TREATMENT (STUDY DURATION: 24 WK), Route [Inhibitor]: ORAL, Species: RAT, Strain/Sex: F344/MALE, Target Tissue: Type of Lesion: LIVER: HEPATOCELLULAR ADENOMA, Dose [Carcinogen]: 100 MG/KG BW 1/WK FOR 3 WK, Promoter: PHENOBARBITAL, 50-06-6); 70%, 89%, -27%, not significant (Carcinogen: DIETHYLNITROSAMINE, 55-18-5, Dose [Inhibitor]: 0, 100 PPM IN DIET FOR 4 WK BEGINNING 1 WK PRIOR TO CARCINOGEN TREATMENT (STUDY DURATION: 24 WK), Route [Inhibitor]: ORAL, Species: RAT, Strain/Sex: F344/MALE, Target Tissue: Type of Lesion: LIVER: HEPATOCELLULAR CARCINOMA, Dose [Carcinogen]: 100 MG/KG BW 1/WK FOR 3 WK, Promoter: PHENOBARBITAL, 50-06-6). The “tumour outcome (control, treated, inhibition, significance)” value by setting is: (Carcinogen: DIETHYLNITROSAMINE, 55-18-5, Dose [Inhibitor]: 0, 100 PPM IN DIET FOR 20 WK BEGINNING 1 WK POST CARCINOGEN TREATMENT (STUDY DURATION: 24 WK), Route [Inhibitor]: ORAL, Species: RAT, Strain/Sex: F344/MALE, Target Tissue: Type of Lesion: LIVER: HEPATOCELLULAR ADENOMA, Dose [Carcinogen]: 100 MG/KG BW 1/WK FOR 3 WK, Promoter: PHENOBARBITAL, 50-06-6) 95%, 55%, 42%, p<0.005; (Carcinogen: DIETHYLNITROSAMINE, 55-18-5, Dose [Inhibitor]: 0, 100 PPM IN DIET FOR 20 WK BEGINNING 1 WK POST CARCINOGEN TREATMENT (STUDY DURATION: 24 WK), Route [Inhibitor]: ORAL, Species: RAT, Strain/Sex: F344/MALE, Target Tissue: Type of Lesion: LIVER: HEPATOCELLULAR CARCINOMA, Dose [Carcinogen]: 100 MG/KG BW 1/WK FOR 3 WK, Promoter: PHENOBARBITAL, 50-06-6) 70%, 81%, -16%, not significant.
